What was measured:
[1] = test system: KPC-2 producing K. pneumoniae (ATCC BAA-1705); assay: Synergistic broth micro-dilution MIC (checkerboard); assay type: cell-based, Klebsiella pneumoniae; details: Klebsiella pneumoniae, ATCCBAA1705, no BLI; ATCC BAA-1705; read-out: MIC of antibiotic alone (no BLI)
[2] = test system: E. coli ATCC 25922 (β-lac-ve); assay: Disk zone of inhibition, antibiotic + Compound-1 on same disk (Methodology 2); assay type: cell-based, Escherichia coli; details: CAZ 30 μg or IPM 10 μg disk alone; ATCC 25922
[3] = test system: KPC2 K. pneumoniae ATCC BAA 1705; assay: Neutropenic mice thigh infection model (human adapted model); assay type: in vivo; details: Imipenem 140 mg/kg fractionated over 5.5 h; end point 6 h
Protocol: Female Swiss Albino mice weighing 24-30 g were used for all studies. Study protocols were reviewed and approved by Institutional Animal Ethical Committee, Orchid Research Laboratories Limited. Mice were rendered neutropenic by intra-peritoneal cyclophosphamide injections. Log phase culture in brain heart infusion broth was injected in to mice thighs. Imipenem or Doripenen alone or in combination were administered sub-cutaneously in decreasing fractionated doses every 15 minutes over the period of 5.5 h (Flückiger, U. et al. “Integration of pharmacokinetics and pharmacodynamics of Imipenem in a human-adapted mouse model’. Antimicrobial Agents and Chemother, 1991, 35(9): 1905-1910). The Compound-1 or tazobactam was administered sub-cutaneously as bolus dose at the start of dosing. Efficacy end point was 6 h in Imipenem studies and 8 h in Doripenen studies.
Three experiments were carried out where Doripenen alone or in combination with compound-1 or tazobactam (two experiments) were evaluated. Doripenem 70 mg/kg was administered in fractionated doses over the period of 5.5 h (Fluckiger, U. et al. “Integration of pharmacokinetics and pharmacodynamics of Imipenem in a human-adapted mouse model’. Antimicrobial Agents and Chemother., 1991, 35(9): 1905-1910). Compound-1 or tazobactam was administered as bolus dose at initiation of therapy. Efficacy end point was 8 h after initiation of therapy.

[4] = test system: KPC2 K. pneumoniae ATCC BAA 1705; assay: Mice systemic infection model; assay type: in vivo; details: Klebsiella pneumoniae, BAA1705; mice, sub-cutaneous; with cilastatin; read-out: ED50 of Imipenem alone
Protocol: Female Swiss Albino mice, weighing 18-22 g were used for all studies. For each dose group, 5 or 6 mice were included. Study protocols were reviewed and approved by Institutional Animal Ethical Committee, Orchid Research Laboratories Limited. Mice were housed in individually ventilated cages provided with food and water ad libitum, throughout the study period. From overnight culture in Brain-Heart Infusion agar medium, challenge inoculum with required bacterial density was prepared in normal saline containing Hog gastric mucin. In studies involved with doripenem, washed bacterial cells was used. Each mouse was infected […] inoculum by intra-peritoneal injection.
Infected mice were dosed sub-cutaneously, with drug preparations at three different time points post-infection.
Imipenem with BLI combinations: Increasing concentrations of Imipenem as single agent or in combination with fixed concentration of BLIs were used to dose infected mice, sub-cutaneously. In this experiment Imipenem was always administered along with cilastatin. Doripenem with BLI combinations: Increasing concentrations of doripenem as single agent or in combination with fixed concentration of BLIs were used to dose infected mice, sub-cutaneously.
Survival of the treated mice were monitored twice a day, up to 7 days post-infection. Efficacy dose 50 (ED50) was calculated by Reed and Muench method (Reed, L. J.; Muench, H. “A simple method of estimating fifty percent endpoints”. The American Journal of Hygiene, 1938, 27: 493-497.).

[5] = test system: K. pneumoniae ATCC 700603 (SHV18); assay: Disk zone of inhibition, antibiotic + Compound-1 on same disk (Methodology 2); assay type: cell-based, Klebsiella pneumoniae; details: CAZ 30 μg or IPM 10 μg disk alone
Text: (§1) In this experiment, Compound-1 is used as a diagnostic reagent for the detection of β-lactamases belonging to the families KPC & ESBL (e.g., SHV18) producing Enterobacteriaceae. A simple set of absorbent paper disks impregnated with antibiotic on agar medium is used for the detection.
(§2) • 0.5 McFarland of the test organism was inoculated at 1:10 dilution on Muller • Hinton Agar plates • Test organisms: Klebsiella pneumoniae (K.p) ATCC BAA-1705, Klebsiella pneumoniae ATCC 700603, Escherichia coli (E.c) Ecoli233 • Carbapenem (e.g., Imipenem [IPM] 10 μg) and cephalosporin (e.g., Ceftazidime [CAZ] 30 μg) paper disks (7 mm) were placed on the inoculated agar plates • Compound-1 (60 μg) disk was placed at a distance of 7 & 10 mm from the carbapenem and cephalosporin disks. • The presence of expressed carbapenemases or ESBLs was measured as the expansion of Imipenem or Ceftazidime's inhibition zones due to synergy in the presence of Compound-1. Results:
(§3) The methodology remains the same as Methodology 1 except the following change • Compound-1 (60 μg) was added on the same disk in combination with a carbapenem (e.g., Imipenem 10 μg) or cephalosporin (e.g., Ceftazidime 30 μg) and placed on the inoculated agar plate. • The presence of the expressed carbapenemases or ESBLs was measured as an increase in Imipenem or Ceftazidime's zone diameter in combination with Compound-1 compared to antibiotic alone. Results

[6] = test system: K. pneumoniae UMM3 (KPC2); assay: Synergistic broth micro-dilution MIC; assay type: cell-based, Klebsiella pneumoniae; details: Klebsiella pneumoniae, no BLI, read-out: MIC of imipenem, No BLI
[7] = test system: K. pneumoniae ATCC BAA-1705 (KPC2); assay: Disk zone of inhibition, antibiotic + Compound-1 on same disk (Methodology 2); assay type: cell-based, Klebsiella pneumoniae; details: CAZ 30 μg or IPM 10 μg disk alone
Text: as §1
as §2, with “Compound-1.” for “Compound-1. Results:”
as §3

[8] = test system: KPC-3 expressing E. coli (J53 R6206); assay: Synergistic broth micro-dilution MIC (checkerboard); assay type: cell-based, Escherichia coli; details: no BLI
[9] = test system: E. coli Ecoli233 (KPC3); assay: Disk zone of inhibition, antibiotic + Compound-1 on same disk (Methodology 2); assay type: cell-based, Escherichia coli; details: CAZ 30 μg or IPM 10 μg disk alone
Text: as §1
as §2, with “Compound-1.” for “Compound-1. Results:”
as §3

[10] = test system: K. pneumoniae NCTC 13438 (KPC3); assay: Synergistic broth micro-dilution MIC; assay type: cell-based, Klebsiella pneumoniae; details: Klebsiella pneumoniae, NCTC13438, no BLI, read-out: MIC of imipenem, No BLI
[11] = test system: E. coli Ecoli233 (KPC3); assay: Synergistic broth micro-dilution MIC; assay type: cell-based, Escherichia coli; details: Escherichia coli, no BLI, read-out: MIC of imipenem, No BLI
[12] = test system: E. cloacae 01 MGH 049 (KPC2, AmpC); assay: Synergistic broth micro-dilution MIC; assay type: cell-based; details: Enterobacter cloacae, no BLI, read-out: MIC of imipenem, No BLI

C[C@@H](O)[C@H]1C(=O)N2C(C(=O)O)=C(SCCN=CN)C[C@H]12 [Imipenem]
MIC [1]: 32 to 64 µg/mL
Zone of inhibition (ZOI), antibiotic alone [2]: 26.5 mm
Bacterial load, Imipenem alone [3]: 6.8E+06 CFU/thigh
ED50 [4]: 8.9 mg/kg
Zone of inhibition (ZOI), antibiotic alone [5]: 25 mm
MIC [6]: 8 µg/mL
Zone of inhibition (ZOI), antibiotic alone [7]: 14.5 mm
MIC of antibiotic alone (no BLI) [8]: 2 to 4 µg/mL
Zone of inhibition (ZOI), antibiotic alone [9]: 14 mm
MIC [10]: 128 µg/mL
MIC [11]: 16 µg/mL
MIC [12]: 8 µg/mL

Source: patent US10201532B2, “Compounds and their use” (ALLECRA THERAPEUTICS GMBH, priority 2010, dated 2019)
